Data published in patent US7678380B2, “Cosmetic treatment method for fighting against skin ageing effects” (LVMH Recherche, priority 1996, dated 2010).
Where two headings read alike, the source gives them in different places.

Tested on: adhesion of normal human keratinocytes to type IV collagen
Conditions: for A = adhesion in μg of protein per well (mean): keratinocytes of a donor, control 3.52; for percentage increase in adhesion: compared with control cultures
Protocol: Coating of the Adhesion Surfaces with Type IV Collagen
Wells of microplates (Falcon) are covered with 6 μg/cm^2 of sterile type IV human collagen (from Sigma).
Each well is then incubated overnight at +4° C. with a 4 mg/ml solution of bovine albumin, BSA, from Sigma.
The wells are then rinsed twice with a phosphate buffer, PBS (phosphate buffered saline), from Gibco.
Preparation of the Cultures of Normal Human Keratinocytes
The skin fragments are incubated in 0.25% w/v trypsin for 18 hours at +4° C. to separate the dermis and epidermis and to obtain, by agitation, a suspension of epidermal cells. The trypsin is neutralized with fetal calf serum, FCS, from Gibco.
The cells are inoculated into flasks defining a surface area of 75 cm^2 and are cultured in keratinocyte proliferation medium, K-SFM, from Gibco, to the point of confluence, when they are subcultured.
The cells used for the experiments for adhesion to the collagen substrate were not subcultured beyond the first subculture (called P0 or P1).
The keratinocytes are then incubated for 30 minutes at +4° C. before the step for adhesion to the substrate coated with collagen IV is carried out.
Measurement of the Adhesion of the Keratinocytes to the Type IV Collagen
The keratinocytes are inoculated into each well at a density of 93,000 cells/cm^2 in E 199 medium from Gibco, containing 2 mM L-glutamine from Gibco and 4 mg/ml of BSA (bovine serum albumin). After incubation for one hour at +4° C., the wells are rinsed with PBS, the adhering cells are then lyzed with 0.1 N sodium hydroxide solution and the cellular proteins are then quantified by means of the calorimetric method and bicinchoninic acid (BCA from Sigma).
A calibration is performed in parallel with BSA solubilized in 0.1 N sodium hydroxide solution, enabling the optical density (OD) values to be converted to micrograms (μg) of proteins per well.
These adhesion values between treated and untreated cells were compared by the 0.7 Student t-test at the p=0.05 threshold in order to assess their level of significance.

SMILES	A = adhesion in μg of protein per well (mean) (0.25 mM)	A = adhesion in μg of protein per well (mean) (0.5 mM)	percentage increase in adhesion (1 mM)	A = adhesion in μg of protein per well (mean) (1 mM)	percentage increase in adhesion (0.25 mM)
[Cl-].[Cl-].[Mg+2] [Magnesium chloride, magnesium chloride]	4.32 μg of protein per well	4.54 μg of protein per well	+31%	4.57 μg of protein per well	
N[C@@H](CC(=O)[O-])C(=O)[O-].[Mg+2] [Magnesium aspartate, magnesium aspartate]	5.39 μg of protein per well				+54%
